Test results as given in patent US20070155012A1, “Method for production of neurons from cells of a cell line” (priority 2003, published 2007).

Tested on: NT2 cells
Test: Response of NT2 cells to growth factors: count of viable spherical cells after three days of culture
Format: cell-based, human
Settings: growth factor present exclusively in growth medium NS; viable cells counted after three days of culture into spheres; FIG. 3
Protocol: This step permits to obtain the first passing over into spheres of NT2 cells that are then cultured, preferably at 100000 cells/ml in 75 ml flasks of the FALCON™ (trademark registered by the Falcon company) type having filtering plugs containing 15 ml of growth medium (NS) not containing bovine serum, defined by the following composition: DMEM/F12 (50%/50%), 2 mM glutamine, N2 complement, 0.6% glucose, 20 μg/ml insulin, to which are added extemporaneously growth factors EGF at 20 ng/ml, bFGF at 10 ng/ml, 2 μg/ml heparin or growth factor LIF at 10 ng/ml or 20 n/ml.
The way NT2 cells respond to growth factors […] and bFGF was studied by counting viable spherical cells obtained after three days of culture in the presence either of the one or the other, either of the one and the other of them then dissociated.
Results represented in FIG. 3 show the number of viable cells after three days, whereas the horizontal line indicates culture density.
Although it was found, unexpectedly, that NT2 cells were capable of forming spheres in the absence of growth factors, they proliferate differently under the action of the latter, and according to the type of growth factors added to the growth medium NS.

Substance	rate of proliferation of NT2 cells multiplied by (with respect to cultures without growth factor)
bFGF: basic fibroblast growth factor, added to growth medium at 10 ng/ml	2.2
EGF: epidermal growth factor, added to growth medium at 20 ng/ml	1.5
